Measured values from patent publication US20230063321A1, “Methods for Treating Inflammatory Bowel Diseases with alpha4beta7 Integrin Antagonists” (Protagonist Therapeutics, Inc., priority 2020, published 2023).
“And” between values parts separate entries of the source, which are not always exact repeats. Identical values can stand only once. Numbered stars: 1 amine (or outer) side, 2 acyl side, 3 side chain; on linkers, the order of the positions; unused ones are H or OH. Bridge positions count the residues as written; N and C are the ends. Square brackets hold non-standard residues; d marks the D form. Peptide text beside a SMILES is read from it. I, II: the chains in the order shown. ξ: configuration not given here. Phe(4-tBu) = CC(C)(C)c1ccc(C[C@H](N)C(=O)O)cc1; Diglycolyl = O=C(COCC(=O)[*:2])[*:1]; NMeR = CN[C@@H](CCCNC(=N)N)C(=O)O; β3hE = N[C@@H](CCC(=O)O)CC(=O)O; Thr(3ξ) = CC(O)[C@H](N)C(=O)O; X1 = O=C(c1ccccc1C[*:2])[*:1]; Pen = CC(C)(S)[C@H](N)C(=O)O

Target: T1, α4β7 integrin on memory CD4+ T cells (Homo sapiens, UniProt P13612+P26010)
T1 construct: the amount of α4β7 expression on the cell surface of circulating lymphocytes; endogenous in cells; host or cells: heparinized whole blood of healthy volunteers
T1 sequence (P13612 34-1032): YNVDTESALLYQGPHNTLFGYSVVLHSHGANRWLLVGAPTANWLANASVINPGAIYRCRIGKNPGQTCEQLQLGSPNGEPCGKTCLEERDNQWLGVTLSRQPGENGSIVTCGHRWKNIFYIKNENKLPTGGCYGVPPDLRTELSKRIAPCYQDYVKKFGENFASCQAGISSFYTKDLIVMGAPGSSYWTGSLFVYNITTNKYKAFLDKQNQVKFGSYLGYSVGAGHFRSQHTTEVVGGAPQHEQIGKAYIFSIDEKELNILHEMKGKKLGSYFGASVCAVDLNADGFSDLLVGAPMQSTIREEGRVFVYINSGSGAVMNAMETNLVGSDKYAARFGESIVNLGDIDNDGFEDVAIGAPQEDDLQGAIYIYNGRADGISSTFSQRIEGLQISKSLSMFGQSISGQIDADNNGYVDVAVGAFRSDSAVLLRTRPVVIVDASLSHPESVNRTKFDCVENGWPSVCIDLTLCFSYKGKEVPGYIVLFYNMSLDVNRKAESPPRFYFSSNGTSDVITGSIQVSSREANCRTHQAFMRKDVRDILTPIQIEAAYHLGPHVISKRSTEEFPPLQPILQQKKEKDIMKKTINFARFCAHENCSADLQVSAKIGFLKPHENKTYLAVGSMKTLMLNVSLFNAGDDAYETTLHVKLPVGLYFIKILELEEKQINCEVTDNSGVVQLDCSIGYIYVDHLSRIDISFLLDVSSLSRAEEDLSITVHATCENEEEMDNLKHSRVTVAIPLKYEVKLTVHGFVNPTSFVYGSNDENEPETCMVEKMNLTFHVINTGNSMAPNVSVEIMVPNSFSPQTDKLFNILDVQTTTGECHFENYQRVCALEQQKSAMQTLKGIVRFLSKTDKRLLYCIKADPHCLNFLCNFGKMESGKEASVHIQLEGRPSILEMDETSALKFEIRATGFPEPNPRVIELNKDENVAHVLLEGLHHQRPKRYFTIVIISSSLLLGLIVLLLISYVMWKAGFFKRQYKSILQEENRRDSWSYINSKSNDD
T1 sequence (P26010 20-798): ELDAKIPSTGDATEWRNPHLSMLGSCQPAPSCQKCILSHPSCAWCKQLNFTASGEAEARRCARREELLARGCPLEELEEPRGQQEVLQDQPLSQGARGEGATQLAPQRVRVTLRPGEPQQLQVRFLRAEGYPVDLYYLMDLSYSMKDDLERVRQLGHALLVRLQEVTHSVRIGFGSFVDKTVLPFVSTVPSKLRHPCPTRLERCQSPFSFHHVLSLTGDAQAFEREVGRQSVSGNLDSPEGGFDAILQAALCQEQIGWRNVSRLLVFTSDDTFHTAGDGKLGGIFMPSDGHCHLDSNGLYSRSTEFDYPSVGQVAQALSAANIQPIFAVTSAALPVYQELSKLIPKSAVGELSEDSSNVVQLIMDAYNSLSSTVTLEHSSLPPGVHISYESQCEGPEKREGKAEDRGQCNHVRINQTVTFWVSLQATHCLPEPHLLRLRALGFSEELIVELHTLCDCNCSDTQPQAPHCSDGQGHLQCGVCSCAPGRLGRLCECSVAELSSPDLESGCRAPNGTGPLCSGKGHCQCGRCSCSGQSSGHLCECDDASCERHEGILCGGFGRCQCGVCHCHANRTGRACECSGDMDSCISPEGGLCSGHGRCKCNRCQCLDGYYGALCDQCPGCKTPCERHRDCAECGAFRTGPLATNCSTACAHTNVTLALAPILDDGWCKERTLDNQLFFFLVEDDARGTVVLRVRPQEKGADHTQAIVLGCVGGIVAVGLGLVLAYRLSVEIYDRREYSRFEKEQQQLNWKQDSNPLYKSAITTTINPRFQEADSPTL
Assay: Study 1 blood α4β7 receptor occupancy and receptor expression
Assay type: in vivo
Conditions: for Average RE (%) / Average RO (%) / REmax (%) / ROmax (%) / Tmax for RE / Tmax for RO: Mean ± SD
Method: After staining is completed, the samples are treated with a red blood cell lysis and fixation buffer, washed and acquired on a flow cytometer. To quantify receptor occupancy on α4β7 expressing memory CD4 T cells, the […] fluorescence intensity (MFI) of Alexa647-labelled peptide within the vedolizumab+ memory CD4+ T cells was used. Receptor occupancy was calculated according to the following formula: [Percent RO]=(1−([Unblocked]−[Blocked])/([Baseline Unblocked]−[Baseline Blocked]))×100.
Expression of α4β7 is defined by MFI of vedolizumab within the memory CD4+ T cells from the unblocked samples. Receptor expression (RE) was calculated as percent change of MFI from baseline for the vedolizumab stain.

[1] = 300 mg Fasted once daily, Day 1
[2] = 300 mg Fasted once daily, Day 14
[3] = 1000 mg Fasted once daily, Day 1
[4] = 1000 mg Fasted once daily, Day 14
[5] = single dose 1400 mg, listed as COMPOUND A

CC(C)C[C@@H]1NC(=O)[C@H](C(C)O)NC(=O)[C@H](CC(=O)O)NC(=O)[C@H](CO)NC(=O)[C@H](CCCNC(=N)N)N(C)C(=O)c2ccccc2CSC(C)(C)[C@@H](C(=O)N[C@@H](Cc2ccc(C(C)(C)C)cc2)C(=O)N[C@@H](CCC(=O)O)CC(=O)N[C@H](CCCCNC(=O)COCC(=O)NCCCC[C@@H](NC(=O)C[C@H](CCC(=O)O)NC(=O)[C@H](Cc2ccc(C(C)(C)C)cc2)NC(=O)[C@H]2NC(=O)[C@H](CC(C)C)NC(=O)[C@H](C(C)O)NC(=O)[C@H](CC(=O)O)NC(=O)[C@H](CO)NC(=O)[C@H](CCCNC(=N)N)N(C)C(=O)c3ccccc3CSC2(C)C)C(=O)O)C(=O)O)NC1=O (stereo partly drawn) [Compound A, ((2-Benzyl)-(N-Me-R)-Ser-Asp-Thr-Leu-Pen-(Phe(4-tBlu))-(β-homo-Glu)-(D-Lys)-OH)2 (SEQ ID NO: 5) and linker-DIG diglycolic acid] (I: [NMeR]SD[Thr(3ξ)]L[Pen][Phe(4-tBu)][β3hE][dK]-OH / II: [NMeR]SD[Thr(3ξ)]L[Pen][Phe(4-tBu)][β3hE][dK]-OH; linker I:9-II:9 via Diglycolyl; linker I:N-I:6, II:N-II:6 via X1)
Average RE (%) (100 mg Fed once daily, Day 1): −12.3 ± 6.6%
Average RO (%) (100 mg Fed once daily, Day 1): 30.0 ± 7.7%
REmax (%) (100 mg Fed once daily, Day 1): −17.4 ± 7.5%
ROmax (%) (100 mg Fed once daily, Day 1): 46.8 ± 11.2%
Tmax for RE (100 mg Fed once daily, Day 1): 14.0 ± 4.2 h
Tmax for RO (100 mg Fed once daily, Day 1): 6.0 ± 3.7 h
Average RE (%) (100 mg Fed once daily, Day 14): −23.8 ± 6.9%
Average RO (%) (100 mg Fed once daily, Day 14): 40.5 ± 7.5%
REmax (%) (100 mg Fed once daily, Day 14): −29.1 ± 7.2%
ROmax (%) (100 mg Fed once daily, Day 14): 55.5 ± 8.82%
Tmax for RE (100 mg Fed once daily, Day 14): 12.0 ± 0 h
Tmax for RO (100 mg Fed once daily, Day 14): 5.0 ± 2.8 h
Average RE (%) [1]: −25.1 ± 4.4%
Average RO (%) [1]: 53.9 ± 6.5%
REmax (%) [1]: −33.1 ± 5.2%
ROmax (%) [1]: 77.8 ± 5.13%
Tmax for RE [1]: 12.0 ± 0 h
Tmax for RO [1]: 4.0 ± 0 h
ROmax (%) (300 mg Fasted once daily, Day 1, listed as COMPOUND A): 77.8%
Average RE (%) [2]: −37.7 ± 5.2%
Average RO (%) [2]: 61.1 ± 6.0%
REmax (%) [2]: −41.5 ± 5.9%
ROmax (%) [2]: 79.7 ± 5.40%
Tmax for RE [2]: 6.0 ± 3.7 h
Tmax for RO [2]: 4.0 ± 0 h
ROmax (%) (300 mg Fasted once daily, Day 14, listed as COMPOUND A): 79.7%
Average RE (%) (300 mg Fed once daily, Day 1): −20.1 ± 3.4%
Average RO (%) (300 mg Fed once daily, Day 1): 47.2 ± 7.5%
REmax (%) (300 mg Fed once daily, Day 1): −28.4 ± 4.4%
ROmax (%) (300 mg Fed once daily, Day 1): 70.4 ± 7.39%
Tmax for RE (300 mg Fed once daily, Day 1): 12.0 ± 0 h
Tmax for RO (300 mg Fed once daily, Day 1): 4.0 ± 0 h
Average RE (%) (300 mg Fed once daily, Day 14): −31.7 ± 4.0%
Average RO (%) (300 mg Fed once daily, Day 14): 57.8 ± 3.9%
REmax (%) (300 mg Fed once daily, Day 14): −37.2 ± 4.7%
ROmax (%) (300 mg Fed once daily, Day 14): 78.9 ± 5.89%
Tmax for RE (300 mg Fed once daily, Day 14): 12.0 ± 0 h
Tmax for RO (300 mg Fed once daily, Day 14): 4.0 ± 0 h
peak percent receptor occupancy (300 mg within 30 minutes following a high fat meal): 61.4%
Average RE (%) (450 mg BID, Day 1): −33.4 ± 4.4%
Average RO (%) (450 mg BID, Day 1): 76.4 ± 8.4%
REmax (%) (450 mg BID, Day 1): −42.6 ± 4.6%
ROmax (%) (450 mg BID, Day 1): 86.5% and 86.5 ± 4.11%
Tmax for RE (450 mg BID, Day 1): 19 ± 4.7 h
Tmax for RO (450 mg BID, Day 1): 16 ± 6.2 h
Average RE (%) (450 mg BID, Day 5, N = 7): −44.3 ± 4.2%
REmax (%) (450 mg BID, Day 5, N = 7): −47.3 ± 4.3%
ROmax (%) (450 mg BID, Day 5, N = 7): 91.9% and 91.9 ± 3.42%
Tmax for RE (450 mg BID, Day 5, N = 7): 5.6 ± 5.1 h
Tmax for RO (450 mg BID, Day 5, N = 7): 2.3 ± 1.6 h
Average RO (%) (450 mg BID, Day 5, N = 7, 24-hour AUEC): 85.3% and 85.3 ± 7.3%
receptor occupancy at 450 mg (450 mg twice daily, read-out: trough receptor occupancy): ~79.2%
Average RE (%) (900 mg QD, Day 1): −38.3 ± 4.9%
Average RO (%) (900 mg QD, Day 1): 80.7 ± 6.7%
REmax (%) (900 mg QD, Day 1): −47.3 ± 5.0%
ROmax (%) (900 mg QD, Day 1): 94.5% and 94.5 ± 2.61%
Tmax for RE (900 mg QD, Day 1): 13 ± 1.4 h
Tmax for RO (900 mg QD, Day 1): 5.4 ± 3.9 h
Average RE (%) (900 mg QD, Day 5): −44.6 ± 6.3%
REmax (%) (900 mg QD, Day 5): −50.1 ± 5.3%
ROmax (%) (900 mg QD, Day 5): 94.9% and 94.9 ± 1.97%
Tmax for RE (900 mg QD, Day 5): 11 ± 3.9 h
Tmax for RO (900 mg QD, Day 5): 3.3 ± 6.2 h
Average RO (%) (900 mg QD, Day 5, 24-hour AUEC): 79.2% and 79.2 ± 8.7%
Average RE (%) [3]: −33.9 ± 3.4%
Average RO (%) [3]: 77.1 ± 3.7%
REmax (%) [3]: −43.1 ± 4.0%
ROmax (%) [3]: 91.3 ± 2.93%
Tmax for RE [3]: 12.0 ± 0 h
Tmax for RO [3]: 7.0 ± 4.1 h
ROmax (%) (1000 mg Fasted once daily, Day 1, listed as COMPOUND A): 91.3%
Average RE (%) [4]: −51.3 ± 3.1%
Average RO (%) [4]: 81.5 ± 15.5%
REmax (%) [4]: −57.3 ± 2.9%
ROmax (%) [4]: 95.6 ± 0.97%
Tmax for RE [4]: 4.0 ± 0 h
Tmax for RO [4]: 4.0 ± 0 h
ROmax (%) (1000 mg Fasted once daily, Day 14, listed as COMPOUND A): 95.6%
mean peak receptor occupancy (doses of 900 mg): greater than 90%
trough receptor occupancy (once-daily 100 mg): approximately 25.4%
trough receptor occupancy (once-daily 1000 mg): ~78.6%
receptor occupancy at trough (once-daily or twice-daily dosing): greater than 80%
Average RE (%) (single dose 100 mg): −21.6 ± 7.1%
Average RO (%) (single dose 100 mg): 38.9 ± 12.5%
ROmax (%) (single dose 100 mg): 61.8 ± 10.8%
Tmax for RE (single dose 100 mg): 11 ± 6.0 h
Tmax for RO (single dose 100 mg): 3.8 ± 2.2 h
REmax (%) (single dose 100 mg, change from baseline): −28.2 ± 7.97%
REmax (%) (single dose 100 mg, change from baseline, listed as COMPOUND A): −28.2%
ROmax (%) (single dose 100 mg, listed as COMPOUND A): 61.8%
Average RE (%) (single dose 300 mg): −32.4 ± 3.0%
Average RO (%) (single dose 300 mg): 64.3 ± 6.6%
REmax (%) (single dose 300 mg): −43.6 ± 3.69%
ROmax (%) (single dose 300 mg): 83.4 ± 7.92%
Tmax for RE (single dose 300 mg): 12 ± 0 h
Tmax for RO (single dose 300 mg): 4.6 ± 2.3 h
ROmax (%) (single dose 300 mg, listed as COMPOUND A): 83.4%
Average RE (%) (single dose 1000 mg): −36.3 ± 2.9%
Average RO (%) (single dose 1000 mg): 81.0 ± 3.5%
REmax (%) (single dose 1000 mg): −45.4 ± 3.70%
ROmax (%) (single dose 1000 mg): 93.6 ± 2.04%
Tmax for RE (single dose 1000 mg): 12 ± 0 h
Tmax for RO (single dose 1000 mg): 4.1 ± 1.9 h
Average RE (%) (single dose 1400 mg): −40.3 ± 6.9%
Average RO (%) (single dose 1400 mg): 86.0 ± 6.8%
REmax (%) (single dose 1400 mg): −49.0 ± 8.20%
ROmax (%) (single dose 1400 mg): 94.8 ± 3.55%
Tmax for RE (single dose 1400 mg): 12 ± 0 h
Tmax for RO (single dose 1400 mg): 4.6 ± 3.2 h
REmax (%) [5]: −49.0%
ROmax (%) [5]: 94.8%
